Here are results for twelve compounds from patent US8518958B2, “Pyrido [2,3-D] pyrimidines and their use as kinase inhibitors” (Forma Therapeutics, Inc., priority 2006, dated 2013).

Broadly, the IC50 is the point on the concentration scale where inhibition reaches its midpoint.

One experiment concerns HT-29 tumor cells. The experiment in a line: Anti-proliferative activity, SRB assay. It counts as cell-based, human. Conditions: Homo sapiens, HT-29, 72 h, 72 hours exposure, read-out: CELLULAR IC50 HT-29. The method in brief: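 Cells at 3,000-15,000/well, plated 24 h before compound, exposed to a concentration range for 72 hours. Proliferation measured by SRB staining after cold TCA fixation, absorbance at OD570; IC50 estimated from % inhibition versus DMSO-treated cells.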

The target in the next experiment is B-Raf delta1-415 (Homo sapiens, UniProt P15056). The experiment in a line: B-Raf kinase inhibition (MAPH filter plate, 33P-ATP, MEK1 substrate). Conditions: read-out: Biochemical IC50 B-Raf. The gist of the method:
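Radiometric filter-binding assay with B-Raf delta1-415 at a level giving 50% turnover, MEK1 substrate and 33P-ATP (12.5 μCi/ml) in 20 mM Mops pH 7.0 with Mg/Mn, 1 h at room temperature. Inhibitor dilution series from 10 μM; EDTA-stopped reactions captured on phosphocellulose filters, counted by scintillation for IC50.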

The target of experiment [1] is C-Raf Raf-1 (truncated), active (Homo sapiens, UniProt P04049, Y340D/Y341D). Briefly: C-Raf kinase inhibition (MAPH assay / IMAP assay). Conditions: read-out: Biochemical IC50 C-Raf. The source says: We characterized the in vitro inhibitory activity against protein kinases of compounds of the present invention by determining their IC50 values (see Table 2).
Sequence of C-Raf Raf-1 (truncated), active (P04049 306-648 Y340D/Y341D): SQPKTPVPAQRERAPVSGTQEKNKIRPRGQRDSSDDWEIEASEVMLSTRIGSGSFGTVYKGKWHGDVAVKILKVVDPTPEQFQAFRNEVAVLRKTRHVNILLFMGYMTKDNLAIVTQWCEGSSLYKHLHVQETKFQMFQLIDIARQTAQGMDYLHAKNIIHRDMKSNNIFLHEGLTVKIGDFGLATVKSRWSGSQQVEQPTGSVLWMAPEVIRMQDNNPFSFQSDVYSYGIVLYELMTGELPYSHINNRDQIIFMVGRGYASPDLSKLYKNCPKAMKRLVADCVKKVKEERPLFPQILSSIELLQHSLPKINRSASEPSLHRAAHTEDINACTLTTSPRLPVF
Kinase: C-Raf Raf-1 (truncated), active (Upstate; cat. no. 14-352)
Reaction Temperature: room temperature
Assay Plate: 96 well U bottom plate (Greiner, 650161)
MultiScreen-PH Plate: 96 well MAPH Filter Plates (Millipore, MAPHNOB50)
Filter Washing Solution: 0.75% H3PO4
Scintillation Liquid: Supermix Liquid Scintillator (PerkinElmer, 1200-439)
Negative Control (C−): 100 mM EDTA, no inhibitor
Positive Control (C+): no inhibitor
Reaction Buffer (Final Concentration):
Final Assay Concentrations:
Kinase: Use kinase conc. yielding 10% ATP turnover as determined in titration experiment.
Adenosine 5′-[γ-^33P]triphosphate: 12.5 μCi/ml (Amersham Biosciences, BF1000)
Substrate: Myelin Basic Protein 57.8 μM (Invitrogen, 13228-010)
Pipetting Sequence: • 1) Add 10 μl 4-fold concentrated substrate+4-fold concentrated ATP in 3-fold concentrated reaction buffer to each well of assay plate • 2) Add 10 μl […] concentrated inhibitor in 4% DMSO in H2O to each well except to C− and C+ wells (starting point: final inhibitor concentration 10 μM; IC50 determination based on dilution series) • 3) Add 10 μl 4% DMSO in H2O to C− and C+ wells • 4) Add 10 μl 500 mM EDTA in H2O to C− wells • 5) Add 10 μl 50 μCi/ml adenosine 5′-[γ-^33P]triphosphate in H2O to each well • 6) Add 10 μl […] concentrated kinase in Reaction Buffer to each well • 7) Incubate 1 hr at room temperature • 8) Add 10 μl 50 mM EDTA in H2O to each well except to C− wells • 9) Prepare MAPH plates by adding 200 μl 0.75% H3PO4 to each well • 10) Exhaust 0.75% H3PO4 using Millipore vacuum station • 11) Add 60 μl 0.75% H3PO4 to each well of MAPH filter plate • 12) Transfer 30 μl sample per well from assay plate to corresponding well of MAPH filter plate • 13) Incubate 30 min at room temperature • 14) Wash each well of MAPH filter plates 3× with 200 μl 0.75% H3PO4 using Millipore vacuum station • 15) Add 20 μl scintillation liquid to each well of MAPH filter plate • 16) Seal MAPH filter plate • 17) Store MAPH filter plate 30 min in darkness • 18) Quantify radioactivity using scintillation counter (MicroBeta, Perkin-Elmer)
Reaction Volume: 8.0108 μl
IMAP Incubation Time: 60 min
Assay Plate: 384 well U bottom, PP, black, low volume (Corning, 3676)
Compound Plate: 384 well U bottom, PS (Falcon, 3995)
IMAP Binding Buffer A: Molecular Devices, R7282
IMAP Binding Buffer B: Molecular Devices, R7283
IMAP Binding Reagent: Molecular Devices, R7207
Negative Control (C−): no kinase, no inhibitor
Reation buffer: 20 mM Hepes, pH 7.5 • 1 mM DTT • 10 mM MnCl2 • 0.01% Brij35
Kinase: Kinase conc. yielding 50% substrate turnover as determined in titration experiment • c-Raf (Upstate 14-352)
Substrate: 5F1-SGQLIDSMANSFV-NH2 400 nM (jpt Peptide Technologies GmbH, Berlin, Germany)
IMAP Binding Solution: 75% IMAP Binding Buffer A • 25% IMAP Binding Buffer B • IMAP Binding Reagent 1:800
Pipetting Sequence: • 1) Add 6 μl 1.33-fold concentrated substrate+1.33-fold concentrated ATP in 1-fold concentrated reaction buffer to each well of assay plate • 2) Add 10.8 nl 740-fold concentrated inhibitor in 100% DMSO to each well except to C− and C+ wells using pintool (CyBio, Jena, Germany) (starting point: final inhibitor concentration 10 μM; IC50 determination based on dilution series) • 3) Add 10.8 nl 100% DMSO to C− and C+ wells using pintool • 4) Add 2 μl reaction buffer to C− wells • 5) Add 2 μl 4-fold concentrated kinase in reaction buffer to each well except C− wells • 6) Incubate according to reaction time at room temperature • 7) Add 15 μl IMAP binding solution to each well • 8) Incubate according to IMAP incubation time at room temperature • 9) Measure fluorescence polarization (Analyst GT, Molecular Devices)

Sequence of B-Raf delta1-415 (P15056 416-766): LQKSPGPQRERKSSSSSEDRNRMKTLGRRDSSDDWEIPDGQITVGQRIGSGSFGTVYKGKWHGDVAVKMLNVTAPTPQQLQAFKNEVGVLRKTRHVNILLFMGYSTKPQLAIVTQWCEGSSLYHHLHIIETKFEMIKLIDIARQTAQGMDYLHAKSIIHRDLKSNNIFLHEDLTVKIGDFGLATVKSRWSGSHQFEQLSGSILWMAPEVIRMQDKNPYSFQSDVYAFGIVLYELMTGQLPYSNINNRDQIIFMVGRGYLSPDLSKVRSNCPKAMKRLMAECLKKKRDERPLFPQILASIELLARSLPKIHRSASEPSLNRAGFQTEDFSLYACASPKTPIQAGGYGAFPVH

`CC(C)(C)On1c(=O)c(-c2ccccc2Cl)cc2cnc(Nc3ccccc3)nc21` [Compound 63, 6-(2-Chlorophenyl)-8-(1,1-dimethyl)ethyloxy-2-phenylamino-pyrido[2,3-d]pyrimidin-7-one]: the values for the half-inhibitory concentration (IC50) (with HT-29 tumor cells; on B-Raf delta1-415; in experiment [1]) were over 10000 nM, under 10000 nM and under 10000 nM, respectively.
As to `COn1c(=O)c(-c2cc(NC(=O)c3cccnc3)ccc2Cl)cc2cnc(Nc3ccccc3)nc21` [Compound 31], the IC50 in the experiment with HT-29 tumor cells was under 10000 nM; at B-Raf delta1-415 it was over 1000 nM; in experiment [1] it was under 100 nM.
On to `COn1c(=O)c(-c2cc(NC(=O)c3cccc(C(F)(F)F)c3)ccc2Cl)cc2cnc(Nc3ccccc3)nc21` [Compound 35], for which the values for the IC50 (in the experiment with HT-29 tumor cells; on B-Raf delta1-415; in experiment [1]) were under 1000 nM, over 1000 nM and under 500 nM, respectively.
For `COn1c(=O)c(-c2c(Cl)cccc2Cl)cc2cnc(Nc3cc(C(=O)NCCN(C)C)n(C)c3)nc21` [Compound 67, 6-(2,6-Dichlorophenyl)-2-(5-(2-dimethylaminoethyl)aminocarbonyl-1-methyl-pyrrol-3-yl)-amino-8-methoxy-pyrido[2,3-d]pyrimidin-7-one], the IC50 in the experiment with HT-29 tumor cells was under 1000 nM; at B-Raf delta1-415 it was under 100 nM; in experiment [1] it was under 100 nM.
In the case of `COn1c(=O)c(C(=O)Nc2ccccc2)cc2cnc(Nc3ccccc3)nc21` [Compound 61, 8-Methoxy-2-phenylamino-6-phenylaminocarbonyl-pyrido[2,3-d]pyrimidin-7-one], the IC50 with HT-29 tumor cells was under 10000 nM; on B-Raf delta1-415, over 10000 nM; in experiment [1] it was over 10000 nM.
Take `COc1cccc(Cl)c1-c1cc2cnc(Nc3ccc(N4CCN(C)CC4)cc3)nc2n(OC)c1=O` [Compound 39, 6-(2-Chloro-6-methoxyphenyl)-8-methoxy-2-(4-(4-methylpiperazino)-phenylamino)-pyrido[2,3-d]pyrimidin-7-one]: the figures for the IC50 (in the experiment on HT-29 tumor cells; at B-Raf delta1-415; in experiment [1]) were under 1000 nM, under 500 nM and under 100 nM, respectively.
In the case of `COn1c(=O)c(-c2ccc(Cl)cc2Cl)cc2cnc(Nc3ccc(OCCN(C)C)cc3)nc21` [Compound 16, 6-(2,4-Dichlorophenyl)-8-methoxy-2-(4-(2-dimethylaminoethoxy)-phenylamino)-pyrido[2,3-d]pyrimidin-7-one], the results for the IC50 (in the experiment on HT-29 tumor cells; at B-Raf delta1-415; in experiment [1]) were under 1000 nM, under 500 nM and under 500 nM, respectively.
With `COc1cccc(Nc2ncc3cc(-c4c(Cl)cccc4Cl)c(=O)n(OC)c3n2)c1` [Compound 3, 6-(2,6-Dichlorophenyl)-8-methoxy-2-(3-methoxyphenylamino)-pyrido[2,3-d]pyrimidin-7-one], the concentration for half-maximal inhibition (IC50) in the experiment on HT-29 tumor cells is under 1000 nM; at B-Raf delta1-415, under 100 nM; in experiment [1] it was under 100 nM.
With `COn1c(=O)c(-c2c(Cl)cccc2Cl)cc2cnc(Nc3ccc(N4CCN(C)CC4)cc3)nc21` [Compound 14, 6-(2,6-Dichlorophenyl)-8-methoxy-2-(4-(4-methylpiperazino)-phenylamino)-pyrido[2,3-d]pyrimidin-7-one], the results for the half-maximal inhibitory concentration (IC50) (with HT-29 tumor cells; at B-Raf delta1-415; in experiment [1]) were under 1000 nM, under 100 nM and under 100 nM, respectively.
On to `COn1c(=O)c(-c2c(Cl)cccc2Cl)cc2cnc(Nc3cc(CO)ccc3F)nc21` [Compound 27, 6-(2,6-Dichlorophenyl)-2-(2-fluoro-5-(hydroxymethyl)phenylamino)-8-methoxy-pyrido[2,3-d]pyrimidin-7-one], for which the IC50 with HT-29 tumor cells was under 10000 nM; at B-Raf delta1-415 it was over 1000 nM; in experiment [1] it was under 100 nM.
On to `COn1c(=O)c(-c2cccc(NC(C)=O)c2)cc2cnc(Nc3ccccc3)nc21` [Compound 62], for which the half-maximal inhibitory concentration (IC50) is under 10000 nM with HT-29 tumor cells, under 10000 nM on B-Raf delta1-415 and under 100 nM in experiment [1].
With `COCCOn1c(=O)c(-c2c(Cl)cccc2Cl)cc2cnc(Nc3cccc(OC)c3)nc21` [Compound 68, 6-(2,6-Dichlorophenyl)-8-(2-methoxyethyl)oxy-2-(3-methoxyphenyl)amino-pyrido[2,3-d]pyrimidin-7-one], the concentration for half-maximal inhibition (IC50) in the experiment on HT-29 tumor cells was under 1000 nM; at B-Raf delta1-415 it was under 500 nM; in experiment [1] it was under 100 nM.
